Measurements published in ChEMBL document CHEMBL3244328, “trans-2,3b,4,5,7,8b,9,10-Octahydronaphtho[1,2-c:5,6-c']dipyrazole, a new orally active antiallergic compound” (1978).
The source made the active and inactive calls. The calls are words filed in the database; no cut-off is given here.

Assays:
Format in all cases: functional
Rattus norvegicus [1] = assay: Antiallergic activity in Sprague-Dawley rat assessed as inhibition of mouse antiserum-induced passive cutaneous anaphylaxis at 100 mg/kg, po administered 1 hr before antiserum challenge measured after 3 hrs by Evans blue staining relative to control
Rattus norvegicus [2] = assay: Antiallergic activity in Sprague-Dawley rat assessed as inhibition of mouse antiserum-induced passive cutaneous anaphylaxis at 25 mg/kg, po administered 1 hr before antiserum challenge measured after 30 mins by Evans blue staining relative to control; settings: read-out: INH
Rattus norvegicus [3] = assay: Antiallergic activity in Sprague-Dawley rat assessed as inhibition of mouse antiserum-induced passive cutaneous anaphylaxis at 50 mg/kg, po administered 1 hr before antiserum challenge measured after 30 mins by Evans blue staining relative to control; settings: read-out: INH
Rattus norvegicus [4] = assay: Antiallergic activity in Sprague-Dawley rat assessed as inhibition of mouse antiserum-induced passive cutaneous anaphylaxis at 200 mg/kg, po administered 1 hr before antiserum challenge measured after 6 hrs by Evans blue staining relative to control; settings: read-out: INH
Rattus norvegicus [5] = assay: Antiallergic activity in po dosed Sprague-Dawley rat assessed as inhibition of mouse antiserum-induced passive cutaneous anaphylaxis administered 1 hr before antiserum challenge measured after 30 mins by Evans blue staining
Rattus norvegicus [6] = assay: Antiallergic activity in Sprague-Dawley rat assessed as inhibition of mouse antiserum-induced passive cutaneous anaphylaxis at 5 to 6 times ED50 mg/kg, po administered 1 hr before antiserum challenge measured after 30 mins by Evans blue staining relative to control

c1ccc(-n2ncc3c2[C@H]2CCc4cnn(-c5ccccc5)c4[C@@H]2CC3)cc1
inhibition (Rattus norvegicus [1]): inactive

c1[nH]nc2c1CC[C@H]1c3n[nH]cc3CC[C@H]21
inhibition in vivo at 25 mg/kg (Rattus norvegicus [2]): 33%
inhibition in vivo at 50 mg/kg (Rattus norvegicus [3]): 61%
inhibition in vivo at 100 mg/kg (Rattus norvegicus [1]; read-out: INH): 65%
inhibition in vivo at 200 mg/kg (Rattus norvegicus [4]): 63%
ED50 (Rattus norvegicus [5]): 35 mg/kg
inhibition (INH) (Rattus norvegicus [6]): 60%

Cn1cc2c(n1)[C@H]1CCc3cn(C)nc3[C@@H]1CC2
inhibition (Rattus norvegicus [1]): inactive
